Source: patent publication US7183278B1 (priority 1998, dated 2007)

System: rice blast fungi (Pyricularia oryze)
Assay: whole plant or invertebrate
Format: in vivo
Settings: 144 h, read-out: protective value

With `O=C(Nc1ccc(Oc2ccccc2)cc1)c1ncccc1O` [Example 1, 3-Hydroxy-4′-phenoxypicolinanilide] as the compound, how does the pest or weed control at 100 ppm read?
The pest or weed control at 100 ppm was 80 to 100%.

For `COc1ccnc(C(=O)Nc2ccc(Oc3ccccc3)cc2)c1O` [Example 9, 3-Hydroxy-4-methoxy-4′-phenoxypicolinanilide], which pest or weed control at 100 ppm is on record?
The pest or weed control at 100 ppm was 80 to 100%.

For `COc1ccnc(C(=O)Nc2cccc(Oc3ccccc3)c2)c1O` [Example 11, 3-Hydroxy-4-methoxy-3′-phenoxypicolinanilide], which pest or weed control at 100 ppm is on record?
The pest or weed control at 100 ppm was 80 to 100%.

`COc1ccnc(C(=O)Nc2ccccc2Oc2ccccc2)c1O` [Example 12, 3-Hydroxy-4-methoxy-2′-phenoxypicolinanilide] was tested. Which pest or weed control at 100 ppm did it give?
The pest or weed control at 100 ppm was 80 to 100%.

`COc1ccnc(C(=O)Nc2ccc(Cc3ccccc3)cc2)c1O` [Example 13, 3-Hydroxy-4-methoxy-4′-benzylpicolinanilide] was tested. Which pest or weed control at 100 ppm did it give?
The pest or weed control at 100 ppm was 80 to 100%.

Which pest or weed control at 100 ppm does the source give for `COc1ccnc(C(=O)Nc2ccc(Oc3ccccc3)c(Cl)c2)c1O` [Example 21, 3-Hydroxy-4-methoxy-3′-chloro-4′-phenoxypicolinanilide] here?
The pest or weed control at 100 ppm was 80 to 100%.

For `COc1ccnc(C(=O)Nc2ccc(Oc3ccccc3)c(C(F)(F)F)c2)c1O` [Example 22, 3-Hydroxy-4-methoxy-4′-phenoxy-3′-trifluoromethylpicolinanilide], which pest or weed control at 100 ppm is on record?
The pest or weed control at 100 ppm was 80 to 100%.

With `COc1ccnc(C(=O)Nc2ccc(Oc3ccccc3)c(C)c2)c1O` [Example 23, 3-Hydroxy-4-methoxy-3′-methyl-4′-phenoxypicolinanilide] as the compound, how does the pest or weed control at 100 ppm read?
The pest or weed control at 100 ppm was 80 to 100%.

`COc1ccnc(C(=O)NC(C)c2cccc3ccccc23)c1O` (stereo not shown) [Example 30, 3-Hydroxy-4-methoxy-N-(1′-(1-naphthyl)ethyl)picolinamide] was tested. Which pest or weed control at 100 ppm did it give?
The pest or weed control at 100 ppm was 80 to 100%.

For `COc1ccnc(C(=O)Nc2cc(C(C)(C)C)cc(C(C)(C)C)c2)c1O` [Example 38, 3-Hydroxy-4-methoxy-3′,5′-di-t-butylpicolinanilide], which pest or weed control at 100 ppm is on record?
Its pest or weed control at 100 ppm is 80 to 100%.

For `COc1ccnc(C(=O)Nc2ccc(OCc3ccccc3)cc2)c1O` [Example 39, 3-Hydroxy-4-methoxy-4′-benzyloxypicolinanilide], which pest or weed control at 100 ppm is on record?
Its pest or weed control at 100 ppm is 80 to 100%.

`COc1ccnc(C(=O)NC2CCCCCCCCCCC2)c1O` [Example 42, 3-Hydroxy-4-methoxy-N-cyclododecylpicolinamide] was tested. Which pest or weed control at 100 ppm did it give?
Its pest or weed control at 100 ppm is 80 to 100%.

How did the pest or weed control at 100 ppm turn out when `COc1ccnc(C(=O)NC2CCCCCCC2)c1O` [Example 43, 3-Hydroxy-4-methoxy-N-cyclooctylpicolinamide] was run?
Its pest or weed control at 100 ppm is 80 to 100%.

Which pest or weed control at 100 ppm does the source give for `COc1ccnc(C(=O)NC23CC4CC(CC(C4)C2)C3)c1O` [Example 45, 3-Hydroxy-4-methoxy-N-(1-adamantyl)picolinamide] here?
The pest or weed control at 100 ppm was 80 to 100%.

Which pest or weed control at 100 ppm does the source give for `COc1ccnc(C(=O)Nc2ccc(C3CCCCC3)cc2)c1O` [Example 49, 3-Hydroxy-4-methoxy-4′-cyclohexylpicolinanilide] here?
The pest or weed control at 100 ppm was 80 to 100%.

For `COc1ccnc(C(=O)Nc2ccc3c(c2)OCCO3)c1O` [Example 51, 3-Hydroxy-4-methoxy-(3′,4′-ethylenedioxy)picolinanilide], which pest or weed control at 100 ppm is on record?
Its pest or weed control at 100 ppm is 80 to 100%.

Which pest or weed control at 100 ppm does the source give for `COc1ccnc(C(=O)NCCC2=CCCCC2)c1O` [Example 53, 3-Hydroxy-4-methoxy-N-(2′-(1-cyclohexenyl)ethyl)picolinamide] here?
The pest or weed control at 100 ppm was 80 to 100%.

With `COc1ccnc(C(=O)Nc2c(C)cc(Oc3ccccc3)cc2C)c1O` [Example 55, 3-Hydroxy-4-methoxy-2′,6′-dimethyl-4′-phenoxypicolinanilide] as the compound, how does the pest or weed control at 100 ppm read?
The pest or weed control at 100 ppm was 80 to 100%.

How did the pest or weed control at 100 ppm turn out when `COc1ccnc(C(=O)NC2CCCCCC2)c1O` [Example 57, 3-Hydroxy-4-methoxy-N-cycloheptylpicolinamide] was run?
Its pest or weed control at 100 ppm is 80 to 100%.

`COc1ccnc(C(=O)NC2CCCCC2)c1O` [Example 59, 3-Hydroxy-4-methoxy-N-cyclohexylpicolinamide] was tested. Which pest or weed control at 100 ppm did it give?
Its pest or weed control at 100 ppm is 80 to 100%.

For `COc1ccnc(C(=O)Nc2ccccc2)c1O` [Example 60, 3-Hydroxy-4-methoxypicolinanilide], which pest or weed control at 100 ppm is on record?
Its pest or weed control at 100 ppm is 80 to 100%.

For `COc1ccnc(C(=O)Nc2ccc(Cl)cc2)c1O` [Example 61, 3-Hydroxy-4-methoxy-4′-chloropicolinanilide], which pest or weed control at 100 ppm is on record?
The pest or weed control at 100 ppm was 80 to 100%.

For `COc1ccnc(C(=O)NCCC2CCCCC2)c1O` [Example 63, 3-Hydroxy-4-methoxy-N-(2′-cyclohexylethyl)picolinamide], which pest or weed control at 100 ppm is on record?
The pest or weed control at 100 ppm was 80 to 100%.

For `COc1ccnc(C(=O)NC(C)c2ccccc2)c1O` (stereo not shown) [Example 69, 3-Hydroxy-4-methoxy-N-(1′-phenylethyl)picolinamide], which pest or weed control at 100 ppm is on record?
Its pest or weed control at 100 ppm is 80 to 100%.

With `COc1ccnc(C(=O)NC(C)(C)c2ccccc2)c1O` [Example 70, 3-Hydroxy-4-methoxy-N-(1′-methyl-1′-phenylethyl)picolinamide] as the compound, how does the pest or weed control at 100 ppm read?
Its pest or weed control at 100 ppm is 80 to 100%.

For `COc1ccnc(C(=O)NCc2ccc(Oc3ccccc3)cc2)c1O` [Example 71, 3-Hydroxy-4-methoxy-N-(4′-phenoxybenzyl)picolinamide], which pest or weed control at 100 ppm is on record?
The pest or weed control at 100 ppm was 80 to 100%.

How did the pest or weed control at 100 ppm turn out when `COc1ccnc(C(=O)NCC2CCCCC2)c1O` [Example 75, 3-Hydroxy-4-methoxy-N-(cyclohexylmethyl)picolinamide] was run?
The pest or weed control at 100 ppm was 80 to 100%.

For `COc1ccnc(C(=O)NC2CCC(C)CC2)c1O` (stereo not shown) [Example 78, 3-Hydroxy-4-methoxy-N-(4′-methylcyclohexyl)picolinamide], which pest or weed control at 100 ppm is on record?
Its pest or weed control at 100 ppm is 80 to 100%.

How did the pest or weed control at 100 ppm turn out when `COc1ccnc(C(=O)NC2CCCC2)c1O` [Example 79, 3-Hydroxy-4-methoxy-N-cyclopentylpicolinamide] was run?
Its pest or weed control at 100 ppm is 80 to 100%.

How did the pest or weed control at 100 ppm turn out when `COc1ccnc(C(=O)NC2CCC2)c1O` [Example 81, 3-Hydroxy-4-methoxy-N-cyclobutylpicolinamide] was run?
Its pest or weed control at 100 ppm is 80 to 100%.

With `CCC(C)NC(=O)c1nccc(OC)c1O` (stereo not shown) [Example 82, 3-Hydroxy-4-methoxy-N-(sec-butyl)picolinamide] as the compound, how does the pest or weed control at 100 ppm read?
Its pest or weed control at 100 ppm is 80 to 100%.

Which pest or weed control at 100 ppm does the source give for `CCCCCCNC(=O)c1nccc(OC)c1O` [Example 83, 3-Hydroxy-4-methoxy-N-(n-hexyl)picolinamide] here?
Its pest or weed control at 100 ppm is 80 to 100%.

With `CCCCCCCCNC(=O)c1nccc(OC)c1O` [Example 86, 3-Hydroxy-4-methoxy-N-(n-octyl)picolinamide] as the compound, how does the pest or weed control at 100 ppm read?
Its pest or weed control at 100 ppm is 80 to 100%.

With `COc1ccnc(C(=O)NCCC(C)(C)C)c1O` [Example 88, 3-Hydroxy-4-methoxy-N-(3′,3′-dimethylbutyl)picolinamide] as the compound, how does the pest or weed control at 100 ppm read?
Its pest or weed control at 100 ppm is 80 to 100%.

How did the pest or weed control at 100 ppm turn out when `COc1ccnc(C(=O)Nc2ccc(C(C)(C)C)cc2)c1O` [Example 114, 3-Hydroxy-4-methoxy-4′-t-butylpicolinanilide] was run?
Its pest or weed control at 100 ppm is 80 to 100%.

How did the pest or weed control at 100 ppm turn out when `COc1ccnc(C(=O)Nc2ccc(C(F)(F)F)cc2)c1O` [Example 115, 3-Hydroxy-4-methoxy-4′-trifluoromethylpicolinanilide] was run?
The pest or weed control at 100 ppm was 80 to 100%.

With `COc1ccnc(C(=O)Nc2ccc(OC(F)(F)F)cc2)c1O` [Example 116, 3-Hydroxy-4-methoxy-4′-trifluoromethoxypicolinanilide] as the compound, how does the pest or weed control at 100 ppm read?
Its pest or weed control at 100 ppm is 80 to 100%.

With `COc1ccnc(C(=O)Nc2ccc(F)cc2)c1O` [Example 120, 3-Hydroxy-4-methoxy-4′-fluoropicolinanilide] as the compound, how does the pest or weed control at 100 ppm read?
The pest or weed control at 100 ppm was 80 to 100%.

For `COc1ccnc(C(=O)Nc2ccc(C)cc2F)c1O` [Example 121, 3-Hydroxy-4-methoxy-2′-fluoro-4′-methylpicolin-anilide], which pest or weed control at 100 ppm is on record?
The pest or weed control at 100 ppm was 80 to 100%.

For `COc1ccnc(C(=O)Nc2cc(F)cc(F)c2)c1O` [Example 122, 3-Hydroxy-4-methoxy-3′,5′-difluoropicolinanilide], which pest or weed control at 100 ppm is on record?
The pest or weed control at 100 ppm was 80 to 100%.

With `COc1ccnc(C(=O)Nc2ccc(C)cc2)c1O` [Example 123, 3-Hydroxy-4-methoxy-4′-methylpicolinanilide] as the compound, how does the pest or weed control at 100 ppm read?
The pest or weed control at 100 ppm was 80 to 100%.

Which pest or weed control at 100 ppm does the source give for `COc1ccnc(C(=O)Nc2ccc(CC(C)(C)C)cc2)c1O` [Example 125, 3-Hydroxy-4-methoxy-4′-neopentylpicolinanilide] here?
Its pest or weed control at 100 ppm is 80 to 100%.

How did the pest or weed control at 100 ppm turn out when `COc1ccnc(C(=O)Nc2ccccn2)c1O` [Example 126, 3-Hydroxy-4-methoxy-N-(2-pyridyl)picolinamide] was run?
Its pest or weed control at 100 ppm is 80 to 100%.
